Source: patent publication US8637664B2, “Alkyl 4- [4- (5-oxo-2,3,5, 11a-tetrahydo-5H-pyrrolo [2, 1-c] [1,4] benzodiazepine-8-yloxy)-butyrylamino]-1H-pyrrole-2-carboxylate derivatives and related compounds for the treatment of a proliferative disease” (Spirogen SARL, priority 2005, dated 2014)
Read-outs that look alike come from different tables or passages of the source. Marks after values point to notes of the source that are not given here.

Experiments:
calf thymus DNA (CT-DNA) = test: DNA thermal denaturation (melting) studies; assay type: binding; conditions: CT-DNA 100 μM DNAp, compound 20 μM, 37 °C; for Induced ΔTm after incubation 0 hours: pH 7.00, 0 hours; for Induced ΔTm after incubation 4 hours: pH 7.00, 4 hours; for Induced ΔTm after incubation 18 hours: pH 7.00, 18 hours
Protocol: The PBD agents were subjected to DNA thermal melting (denaturation) studies (Gregson, S. J., et al., Journal of Medicinal Chemistry, 44(5), 737-748 (2001); Jones, G. B., et al., Anti-Cancer Drug Design, 5(3), 249-264 (1990); McConnaughie, A. W. and; Jenkins, T. C. Journal of Medicinal Chemistry, 38(18), 3488-3501 (1995)) using calf thymus DNA (CT-DNA, type-1, highly polymerized sodium salt; 42% G+C [Sigma]) at a fixed 100 μM (DNAp=50 μM bp) concentration, determined using an extinction coefficient of 6600 (M phosphate)^−1 cm^−1 at 260 nm (Manzini, G., et al., Nucleic Acids Research, 11(24), 8861-8876 (1983)). Solutions were prepared in pH 7.00±0.01 aqueous buffer containing 10 mM NaH2PO4/Na2HPO4 and 1 mM EDTA. Working solutions containing CT-DNA and the test compound (20 μM) were incubated at 37.0±0.1° C. for 0 to 18 hours using an external water bath. Samples were monitored at 260 nm using a Varian-Cary 400 Bio spectrophotometer fitted with a Peltier heating accessory. Heating was applied at a rate of 1° C./min in the 45 to 98° C. temperature range, with optical and temperature data sampling at 200 ms intervals. A separate experiment was carried out using buffer alone, and this baseline was subtracted from each DNA melting curve before data treatment. Optical data were imported into the Origin 5 program (MicroCal Inc., Northampton, Mass.) for analysis. DNA helix→coil transition temperatures (Tm) were determined at the midpoint of the normalized melting profiles using a published analytical procedure (Jones, G. B., et al., Anti-Cancer Drug Design, 5(3), 249-264 (1990)). Results are given in table 1 as the mean±standard deviation from at least three determinations. Ligand-induced alterations in DNA melting behaviour (ΔTm) are given by ΔTm=Tm(DNA+ligand)−Tm(DNA), where the Tm value determined for free CT-DNA is 67.82±0.06° C. (averaged from >90 runs). All PBD compounds were dissolved in HPLC-grade MeOH to give working solutions containing ≦0.6% v/v MeOH; Tm results were corrected for the effects of MeOH co-solvent by using a linear correction term.
The above method was also carried out on the compounds of example 2, with all compounds being incubated for up to 72 hours.

[1] = molecular target: 262 bp DNA fragment (MS2F or MS2R) of MS2 plasmid; test: DNase I footprinting on MS2 DNA fragment; assay type: binding
Protocol: The sequence selectivity of the six PBD-pyrrole conjugates (21, 23, 25, 27, 29) was evaluated by standard DNA footprinting on a fragment of MS2 as follows, in accordance with the technique described in Martin, C., et al., (Martin, C., et al., Biochemistry, 44(11), 4135-4147 (2005))
Forward (5′-[…]-3′) or reverse (5′-[…]-3′) primer was 5′-end labelled with ^32P by T4 polynucleotide kinase. Labelling mixture contained primer (5 pmol; Sigma-Genosys), 10× kinase buffer (1 μl; Promega), (γ-^32P)-ATP (2μ of 10 μCi/μl, 6000 Ci/mmol; Perkin Elmer Life Sciences), and T4 polynucleotide kinase (10 U; Promega) in a 10 μl final volume. Labelling mix was incubated at 37° C. for 30 minutes followed by inactivation of the kinase at 70° C. for 10 minutes. A 262 bp DNA fragment (MS2F or MS2R) was amplified from the MS2 plasmid using PCR with either labelled forward or reverse primer and the unlabelled primer as required. Reactions were comprised of labelled primer mix (10 μl), 10×PCR buffer (5 μl; Sigma), dNTPs (5 μl; 2.5 mM each of A, C, G and T, Amersham Pharmacia), unlabelled primer as required ([…]), MS2 plasmid template DNA (10 ng) and Taq DNA polymerase (5 U; Sigma) in a 50 μl final volume. Radiolabelled 262-mer was purified by non-denaturing polyacrylamide gel electrophoresis, elution, filtration and EtOH precipitation and was resuspended in a solution of Tris-HCl (10 mM) pH 7.4/NaCl (10 mM) to yield an activity of 200 counts per second per 5 μl when held up, in a pipette tip, to a capped Morgan series 900 mini-monitor.
For DNase I footprinting radiolabelled 262-mer (2 μl) was incubated overnight (16-18 h) with drug solution (388 μl) or in an aqueous buffer [HEPES (20 mM) pH 7.9, NaCl (50 mM), MgCl2 (1 mM), DTT (5 mM), 10% glycerol] in control reactions. Enzymatic cleavage was initiated by addition of DNase I solution (10 μl of 0.05 U/ml; Sigma) in aqueous NaCl (200 mM), MgCl2 (20 mM) and MnCl2 (20 mM) and halted with stop solution [40 μl of NaCl (2.25 M), EDTA (150 mM) pH 8.0, 0.57 μg/μl glycogen (0.57 μg/μl; Roche), poly(dl-dC).poly(dl-dC) DNA (19.3 ng/μl; Amersham Pharmacia)]. From this mixture, digested DNA fragments were prepared for electrophoresis following the protocol of Trauger & Dervan, and were loaded on to a preheated 8% denaturing polyacrylamide gel. Electrophoresis in 1×TBE buffer was allowed to proceed for 100 min at 70 W (1600-2000 V). The gel was the fixed in acetic acid (10% v/v) and methanol (10% v/v) for 15 minutes followed by being blotted onto Whatman 3 mM paper and vacuum-dried at 80° C. for 45 minutes.
Dried gels were stored at room temperature in phosphor storage screens (Molecular Dynamics) for a minimum period of 12 h. Data were collected from exposed screens using a Molecular Dynamics 425E Phosphorlmager and transferred to ImageQuant v1.2 software (Molecular Dynamics) for analysis. Data were expressed as the differential cleavage between control and sample lanes. Peaks were integrated and differential cleavage calculated as ln(fd)−ln(fc); (fd is the fractional cleavage at any particular bond in the presence of drug and fc is the fractional cleavage of the same bond in the control). Maxam-Gilbert G+A marker lanes were prepared in the usual fashion.
The vast majority of footprint sites are common features in the binding profiles of all six conjugates, with only a small number of sites being footprinted by a subset of the family. Even more unexpectedly, no site is footprinted by only one molecule (in fact, the fewest number of conjugates that bind at any single site is four). The differential cleavage plot provides footprinting profiles at a supramaximal concentration colour-coded for each conjugate which illustrates a striking degree of overlap. Although there is no conspicuous change in footprinting patterns as the number of pyrroles units in each conjugate increases, there are changes in two other features, namely, the apparent binding affinity and the width of the footprinted site. […]

[2] = test system: K562 human chronic myeloid leukaemia cells; test: In vitro cytotoxicity, MTT assay; assay type: cell-based; conditions: K562, 1 hour drug exposure, MTT after 4 days
Protocol: K562 human chronic myeloid leukaemia cells were maintained in RPM1 1640 medium supplemented with 10% fetal calf serum and 2 mM glutamine at 37° C. in a humidified atmosphere containing 5% CO2 and were incubated with a specified dose of drug for 1 hour at 37° C. in the dark. The incubation was terminated by centrifugation (5 min, 300 g) and the cells were washed once with drug-free medium. Following the appropriate drug treatment, the cells were transferred to 96-well microtiter plates (10^4 cells per well, 8 wells per sample). Plates were then kept in the dark at 37° C. in a humidified atmosphere containing 5% CO2. The assay is based on the ability of viable cells to reduce a yellow soluble tetrazolium salt, 3-(4,5-dimethylthiazol-2-yl)-2,5-diphenyl-2H-tetrazolium bromide (MTT, Aldrich-Sigma), to an insoluble purple formazan precipitate. Following incubation of the plates for 4 days (to allow control cells to increase in number by approximately 10 fold), 20 μL of MTT solution (5 mg/mL in phosphate-buffered saline) was added to each well and the plates further incubated for 5 hours. The plates were then centrifuged for 5 minutes at 300 g and the bulk of the medium pipetted from the cell pellet leaving 10-20 μL per well. DMSO (200 μL) was added to each well and the samples agitated to ensure complete mixing. The optical density was then read at a wavelength of 550 nm on a Titertek Multiscan ELISA plate reader, and a dose-response curve was constructed.

[3] = test system: 170 bp sequence of the human Topo-IIa promoter; test: DNase I footprinting on Topo-IIa promoter (ICB1, ICB2 sites); assay type: binding
Protocol: In a similar manner to Example 4, the affinity and sequence selectivity of certain compounds of examples 1 and 2 was evaluated by standard DNA footprinting on a 170 bp sequence of the human Topo-IIa promoter, in accordance with the technique described in Martin, C., et al.
Selected results are shown in FIG. 9, wherein the concentrations of the lanes were 0, 1.6, 8, 40, 200, 1000, 5000 and 25000 nM in each case.
The footprinting results allowed the identification of compounds that could potentially disrupt transcription factor binding at the ICB1 and ICB2 sites. […] These compounds are detailed below in table 3, showing the concentrations (μM) at which the PBD-heterocycle conjugates bind at ICB1 and ICB2.

[4] = test system: NF-Y binding at ICB1 of Topoisomerase IIα promoter; test: NF-Y gel shift assay (EMSA) at ICB1
[5] = test system: NF-Y binding at ICB2 of Topoisomerase IIα promoter; test: NF-Y gel shift assay (EMSA) at ICB2
[6] = read-out: DNase IC50 (apparent binding affinity; 50% inhibition of DNase I-mediated cleavage), estimated by eye, site 5′-62CAATACACA70-3′

| SMILES | Induced ΔTm after incubation 0 hours (calf thymus DNA (CT-DNA)) | Induced ΔTm after incubation 4 hours (calf thymus DNA (CT-DNA)) | Induced ΔTm after incubation 18 hours (calf thymus DNA (CT-DNA)) | IC50 ([1]; estimated by eye from footprint gel, read-out: DNase IC50 (apparent binding affinity)) | IC50 ([2]; Homo sapiens) | IC50 [1, 6] | IC50 [2] | Induced ΔTm after incubation 72 hours (calf thymus DNA (CT-DNA); pH 7.00, 72 hours) | Concentration at which DNA binding is observed, ICB1 ([3]; ICB1 site) | Concentration at which DNA binding is observed, ICB2 ([3]; ICB2 site) | Lowest concentration at which NF-Y binding inhibition was observed [4] | Lowest concentration at which NF-Y binding inhibition was observed [5] |
| --- | --- | --- | --- | --- | --- | --- | --- | --- | --- | --- | --- | --- |
| COC(=O)c1cc(NC(=O)CCCOc2cc3c(cc2OC)C(=O)N2CCC[C@H]2C=N3)cn1C [Compound 21, (11aS) Methyl 4-[4-(7-methoxy-5-oxo-2,3,5,11a-tetrahydro-5H-pyrrolo[2,1-c][1,4]benzodiazepine-8-yloxy)-butyrylamino]-1-methyl-1H-pyrrole-2-carboxylate] | 6.5 °C | 7.9 °C | 8.1 °C | ≥ 10000 nM | 51 nM | – | – | – | – | – | – | – |
| COC(=O)c1cc(NC(=O)c2cc(NC(=O)c3cc(NC(=O)CCCOc4cc5c(cc4OC)C(=O)N4CCC[C@H]4C=N5)cn3C)cn2C)cn1C [Compound 25, (11aS) Methyl 4-{[4-({4-[4-(7-Methoxy-6-oxo-2,3,5,11a-tetrahydro-5H-pyrrolo[2,1-c][1,4]benzodiazepine-8-yloxy)-butyrylamino]-1-methyl-1H-pyrrole-2-carbonyl]-amino)-1-methyl-1H-pyrrole-2-carbonyl]-amino}-1-methyl-1H-pyrrole-2-carboxylate] | 17.3 °C | 19.6 °C | 21.2 °C | – | – | 30 to 100 nM | 41 nM | – | – | – | – | – |
| COC(=O)c1cc(NC(=O)c2cc(NC(=O)c3cc(NC(=O)c4cc(NC(=O)CCCOc5cc6c(cc5OC)C(=O)N5CCC[C@H]5C=N6)cn4C)cn3C)cn2C)cn1C [Compound 27, (11aS) Methyl 4-[(4-{[4-({4-[4-(7-Methoxy-5-oxo-2,3,5,11a-tetrahydro-5H-pyrrolo[2,1-c][1,4]benzodiazepine-8-yloxy)-butyrylamino]-1-methyl-1H-pyrrole-2-carbonyl]-amino)-1-methyl-1H-pyrrole-2-carbonyl]-amino}-1-methyl-1H-pyrrole-2-carbonyl)-amino]-1-methyl-1H-pyrrole-2-carboxylate] | 16.0 °C | 18.5 °C | 19.0^y ° C. | – | – | ~30 nM | 47 nM | – | – | – | – | – |
| COC(=O)c1cc(NC(=O)c2cc(NC(=O)c3cc(NC(=O)c4cc(NC(=O)c5cc(NC(=O)CCCOc6cc7c(cc6OC)C(=O)N6CCC[C@H]6C=N7)cn5C)cn4C)cn3C)cn2C)cn1C [Compound 29, (11aS) Methyl 4-({4-[(4-{[4-({4-[4-(7-Methoxy-5-oxo-2,3,5,11a-tetrahydro-5H-pyrrolo[2,1-c][1,4]benzodiazepine-8-yloxy)-butyrylamino]-1-methyl-1H-pyrrole-2-carbonyl]-amino)-1-methyl-1H-pyrrole-2-carbonyl]-amino}-1-methyl-1H-pyrrole-2-carbonyl)-amino]-1-methyl-1H-pyrrole-2-carbonyl}-amino)-1-methyl-1H-pyrrole-2-carboxylate] | 15.1 °C | 15.9 °C | 17.1 °C | – | – | – | 83 nM | – | – | – | – | – |
| COC(=O)c1cc(NC(=O)c2cc(NC(=O)c3nc(NC(=O)CCCOc4cc5c(cc4OC)C(=O)N4CCC[C@H]4C=N5)cn3C)cn2C)cn1C [Compound 67] | 19.1 °C | 19.8 °C | 21.1 °C | – | – | – | – | 21.6 °C | 5 µM | 1 µM | 50 µM | 5 µM |
